Experimental data: article PMC12652692, “Synthesis and In Vitro Anticancer Evaluation of Novel Phosphonium Derivatives of Chrysin” (International Journal of Molecular Sciences, 2025)

Experiments:
Assay in all cases: NCI60 one-dose screen
Type in all cases: cell-based
HOP-62 = settings: Homo sapiens; HOP-62, 10 μM; read-out: Growth percent
Procedure, shortened: (§1)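 DMSO-solubilised compounds, 10 µM final, were added to cells preincubated 24 h, then incubated 48 h (37 °C, 5% CO2). Endpoint: SRB absorbance at 515 nm, expressed as growth relative to control and time zero.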

HT29 = settings: Homo sapiens, HT-29; HT29, 10 μM; read-out: Growth percent
Procedure, shortened: as §1

COLO 205 = settings: Homo sapiens; COLO 205, 10 μM; read-out: Growth percent
Procedure, shortened: as §1

NCI-H226 = settings: Homo sapiens; NCI-H226, 10 μM; read-out: Growth percent
Procedure, shortened: as §1

HS 578T = settings: Homo sapiens, read-out: Growth percent
Procedure, shortened: as §1

M14 = settings: Homo sapiens; M14, 10 μM; read-out: Growth percent
Procedure, shortened: as §1

K-562 = settings: Homo sapiens, K562; K-562, 10 μM; read-out: Growth percent
Procedure, shortened: as §1

DU-145 = settings: Homo sapiens; DU-145, 10 μM; read-out: Growth percent
Procedure, shortened: as §1

HCC-2998 = settings: Homo sapiens; HCC-2998, 10 μM; read-out: Growth percent
Procedure, shortened: as §1

MALME-3M = settings: Homo sapiens, read-out: Growth percent
Procedure, shortened: as §1

OVCAR-5 = settings: Homo sapiens; OVCAR-5, 10 μM; read-out: Growth percent
Procedure, shortened: as §1

OVCAR-4 = settings: Homo sapiens; OVCAR-4, 10 μM; read-out: Growth percent
Procedure, shortened: as §1

CCRF-CEM = settings: Homo sapiens, read-out: Growth percent
Procedure, shortened: as §1

RXF 393 = settings: Homo sapiens; RXF 393, 10 μM; read-out: Growth percent
Procedure, shortened: as §1

O=c1cc(-c2ccccc2)oc2cc(OCCCC[P+](c3ccccc3)(c3ccccc3)c3ccccc3)cc(O)c12 [3a]
activity at 10 µM (HOP-62): -63.6%
activity at 10 µM (HT29): -65%
activity at 10 µM (COLO 205): -56.3%
activity at 10 µM (NCI-H226): -29%
activity at 10 µM (HS 578T): -35.2%
activity at 10 µM (M14): -70.1%
activity at 10 µM (K-562): -24.1%
activity at 10 µM (DU-145): -94.8%
activity at 10 µM (HCC-2998): -93.1%
activity at 10 µM (MALME-3M): -88%
activity at 10 µM (OVCAR-5): -97.7%
activity at 10 µM (OVCAR-4): -69.1%
activity at 10 µM (CCRF-CEM): -75.9%

Cc1ccc([P+](CCCCOc2cc(O)c3c(=O)cc(-c4ccccc4)oc3c2)(c2ccc(C)cc2)c2ccc(C)cc2)cc1 [3b]
activity at 10 µM (HOP-62): -62%
activity at 10 µM (RXF 393): -74.8%
activity at 10 µM (HT29): -60.7%
activity at 10 µM (COLO 205): -64.5%
activity at 10 µM (NCI-H226): -50.2%
activity at 10 µM (HS 578T): -52.2%
activity at 10 µM (M14): -75.2%
activity at 10 µM (K-562): -4.21%
activity at 10 µM (DU-145): -85.9%
activity at 10 µM (HCC-2998): -88.7%
activity at 10 µM (MALME-3M): -57.9%
activity at 10 µM (OVCAR-5): -80.3%
activity at 10 µM (OVCAR-4): -73.1%
activity at 10 µM (CCRF-CEM): -70.5%

COc1ccc([P+](CCCCOc2cc(O)c3c(=O)cc(-c4ccccc4)oc3c2)(c2ccc(OC)cc2)c2ccc(OC)cc2)cc1 [3c]
activity at 10 µM (HOP-62): -81.1%
activity at 10 µM (RXF 393): -74.4%
activity at 10 µM (HT29): -82.8%
activity at 10 µM (COLO 205): -68.3%
activity at 10 µM (NCI-H226): -67.6%
activity at 10 µM (HS 578T): -62.7%
activity at 10 µM (M14): -1.24%
activity at 10 µM (K-562): -39.8%
activity at 10 µM (DU-145): -90.7%
activity at 10 µM (HCC-2998): -72.9%
activity at 10 µM (MALME-3M): -45%
activity at 10 µM (OVCAR-5): -59.3%
activity at 10 µM (OVCAR-4): -74.3%
activity at 10 µM (CCRF-CEM): -71.7%

O=c1cc(-c2ccccc2)oc2cc(OCCCC[P+](c3ccc(F)cc3)(c3ccc(F)cc3)c3ccc(F)cc3)cc(O)c12 [3d]
activity at 10 µM (HOP-62): -70.8%
activity at 10 µM (RXF 393): -84%
activity at 10 µM (HT29): -69.8%
activity at 10 µM (COLO 205): -68.4%
activity at 10 µM (NCI-H226): -56.9%
activity at 10 µM (HS 578T): -54.5%
activity at 10 µM (M14): -75.5%
activity at 10 µM (K-562): -17.6%
activity at 10 µM (DU-145): -79.2%
activity at 10 µM (HCC-2998): -89%
activity at 10 µM (MALME-3M): -82.4%
activity at 10 µM (OVCAR-5): -89.9%
activity at 10 µM (OVCAR-4): -48.1%
activity at 10 µM (CCRF-CEM): -55.9%

O=c1cc(-c2ccccc2)oc2cc(OCCCC[P+](C3CCCCC3)(C3CCCCC3)C3CCCCC3)cc(O)c12 [3e]
activity at 10 µM (HOP-62): -82.6%
activity at 10 µM (RXF 393): -80%
activity at 10 µM (HT29): -84.9%
activity at 10 µM (COLO 205): -70.2%
activity at 10 µM (NCI-H226): -56.7%
activity at 10 µM (HS 578T): -62.1%
activity at 10 µM (M14): -82.2%
activity at 10 µM (K-562): 3.17%
activity at 10 µM (DU-145): -96.1%
activity at 10 µM (HCC-2998): -84.7%
activity at 10 µM (MALME-3M): -76.9%
activity at 10 µM (OVCAR-5): -60.5%
activity at 10 µM (OVCAR-4): -64.5%
activity at 10 µM (CCRF-CEM): -66.7%

COc1c(C)cc([P+](CCCCOc2cc(O)c3c(=O)cc(-c4ccccc4)oc3c2)(c2cc(C)c(OC)c(C)c2)c2cc(C)c(OC)c(C)c2)cc1C [3f]
activity at 10 µM (HOP-62): -25.2%
activity at 10 µM (RXF 393): -66.9%
activity at 10 µM (HT29): -72.7%
activity at 10 µM (COLO 205): -62.2%
activity at 10 µM (NCI-H226): -58.5%
activity at 10 µM (HS 578T): -57.7%
activity at 10 µM (M14): -68.3%
activity at 10 µM (K-562): 6.85%
activity at 10 µM (DU-145): -92.7%
activity at 10 µM (HCC-2998): -73.5%
activity at 10 µM (MALME-3M): -42.5%
activity at 10 µM (OVCAR-5): -87.8%
activity at 10 µM (OVCAR-4): -65.5%
activity at 10 µM (CCRF-CEM): -32.6%

Cc1ccccc1[P+](CCCCOc1cc(O)c2c(=O)cc(-c3ccccc3)oc2c1)(c1ccccc1C)c1ccccc1C [3g]
activity at 10 µM (HOP-62): -98.3%
activity at 10 µM (RXF 393): -98.7%
activity at 10 µM (HT29): -97.9%
activity at 10 µM (COLO 205): -97%
activity at 10 µM (NCI-H226): -99.4%
activity at 10 µM (HS 578T): -98.3%
activity at 10 µM (M14): -97.5%
activity at 10 µM (K-562): -97.5%
activity at 10 µM (DU-145): -97.1%
activity at 10 µM (HCC-2998): -98.2%
activity at 10 µM (MALME-3M): -98.5%
activity at 10 µM (OVCAR-4): -98.7%
activity at 10 µM (CCRF-CEM): -96.5%

O=c1cc(-c2ccccc2)oc2cc(OCCCC[P+](c3ccccc3)(c3ccccc3)c3ccccn3)cc(O)c12 [3h]
activity at 10 µM (HOP-62): -57%
activity at 10 µM (RXF 393): -80.5%
activity at 10 µM (HT29): -60.6%
activity at 10 µM (COLO 205): -75.9%
activity at 10 µM (NCI-H226): -50.4%
activity at 10 µM (HS 578T): -35.8%
activity at 10 µM (M14): -84.3%
activity at 10 µM (K-562): -51.3%
activity at 10 µM (DU-145): -95.3%
activity at 10 µM (HCC-2998): -88.5%
activity at 10 µM (MALME-3M): -93.4%
activity at 10 µM (OVCAR-5): -93.4%
activity at 10 µM (OVCAR-4): -51.2%
activity at 10 µM (CCRF-CEM): -20.7%

O=c1cc(-c2ccccc2)oc2cc(O)cc(O)c12 [compound 2, 5,7-dihydroxyflavone, reference compound]
activity at 10 µM (HOP-62): 113%
activity at 10 µM (RXF 393): 91.2%
activity at 10 µM (HT29): 103%
activity at 10 µM (COLO 205): 105%
activity at 10 µM (NCI-H226): 86.8%
activity at 10 µM (HS 578T): 92.5%
activity at 10 µM (M14): 107%
activity at 10 µM (K-562): 96.8%
activity at 10 µM (DU-145): 92%
activity at 10 µM (HCC-2998): 103%
activity at 10 µM (MALME-3M): 102%
activity at 10 µM (OVCAR-5): 99.1%
activity at 10 µM (OVCAR-4): 112%
activity at 10 µM (CCRF-CEM): 102%
